In patent US20240360151A1 (SANOFI, priority 2023, published 2024):
pIC50: −log10 of the molar value.

Columns and labels:
[1] = target: T1, NLRP3 inflammasome (Homo sapiens, UniProt Q96P20); test: IL-1β secretion assay (NLRP3 IC50) in LPS-primed, nigericin-activated THP-1 cells, HTRF; type: cell-based; conditions: monocytic THP-1 cells; LPS 10 ng/mL 3 h priming, then compound + nigericin 10 μM 2 h; relative IC50, 10 concentrations, geometric mean
T1 construct: endogenous in cells; host or cells: THP-1 monocytic cells
T1 sequence (Q96P20 whole entry): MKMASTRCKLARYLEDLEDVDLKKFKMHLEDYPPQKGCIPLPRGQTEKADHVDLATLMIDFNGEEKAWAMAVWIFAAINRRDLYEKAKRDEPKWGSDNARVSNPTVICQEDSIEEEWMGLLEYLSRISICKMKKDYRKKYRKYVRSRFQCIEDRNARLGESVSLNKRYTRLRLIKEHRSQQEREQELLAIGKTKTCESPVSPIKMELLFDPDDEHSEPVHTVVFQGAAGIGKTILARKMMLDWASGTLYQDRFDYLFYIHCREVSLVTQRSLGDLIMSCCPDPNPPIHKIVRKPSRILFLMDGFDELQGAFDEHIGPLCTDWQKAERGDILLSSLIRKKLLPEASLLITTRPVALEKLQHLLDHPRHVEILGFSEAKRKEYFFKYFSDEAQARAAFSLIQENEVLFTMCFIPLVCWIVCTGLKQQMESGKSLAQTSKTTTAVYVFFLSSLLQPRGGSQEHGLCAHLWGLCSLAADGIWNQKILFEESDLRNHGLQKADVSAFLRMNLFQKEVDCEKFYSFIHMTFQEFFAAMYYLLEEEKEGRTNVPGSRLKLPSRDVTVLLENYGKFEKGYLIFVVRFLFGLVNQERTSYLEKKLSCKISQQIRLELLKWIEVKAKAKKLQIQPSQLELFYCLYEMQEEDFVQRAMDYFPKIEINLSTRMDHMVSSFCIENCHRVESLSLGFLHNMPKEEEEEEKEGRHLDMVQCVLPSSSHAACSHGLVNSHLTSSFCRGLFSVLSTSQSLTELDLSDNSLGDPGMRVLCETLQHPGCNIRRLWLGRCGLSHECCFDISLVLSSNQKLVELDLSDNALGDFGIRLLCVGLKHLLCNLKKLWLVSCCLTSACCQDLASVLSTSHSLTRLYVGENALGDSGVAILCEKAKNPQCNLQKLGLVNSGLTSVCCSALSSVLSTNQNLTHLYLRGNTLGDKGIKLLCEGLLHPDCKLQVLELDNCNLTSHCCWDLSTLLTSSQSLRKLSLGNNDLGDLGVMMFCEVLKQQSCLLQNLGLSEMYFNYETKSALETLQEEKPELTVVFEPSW
In short: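 THP-1 cells primed with LPS 10 ng/mL for 3 h at 37° C., then compound (10-point 1:3 dilution, 0.1% DMSO) added with 10 μM nigericin for 2 h. Supernatant IL-1β measured by HTRF; relative IC50 from a 4-parameter logistic fit, reported as geometric mean.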

[2] = test system: NF-kB pathway (TNF-α secretion by THP-1 cells); test: TNF-α secretion assay in LPS-stimulated THP-1 cells, Lumit immunoassay; type: cell-based, human; conditions: Homo sapiens, THP-1, 3 h, monocytic THP-1 cells, LPS 10 ng/mL, relative IC50, 10 concentrations, geometric mean
In short: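 THP-1 monocytes in RPMI with 5% FBS were treated with compound, then stimulated with 10 ng/mL LPS for 3 h. Secreted TNF-α was measured in-plate by Lumit immunoassay. Relative IC50 came from 10-concentration curves fitted with a 4-parameter logistic model, reported as geometric mean.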

pIC50 [1]	pIC50 [2]	SMILES
6.38	< 5.00	Cc1cc(Cl)cc(O)c1-c1nnc(N2CCO[C@H](CO)C2)cc1CO [Example 188, 5-chloro-2-[4-(hydroxymethyl)-6-[(2S)-2-(hydroxymethyl)morpholin-4-yl]pyridazin-3-yl]-3-methyl-phenol]
7.92	< 5.00	Cc1cc(Cl)cc(O)c1-c1cc(CO)c(N2CCO[C@H](CO)C2)nn1 [Example 189, 5-chloro-2-[5-(hydroxymethyl)-6-[(2S)-2-(hydroxymethyl)morpholin-4-yl]pyridazin-3-yl]-3-methyl-phenol]
7.96	< 5.00	[2H]C([2H])(O)[C@@H]1CN(c2ccc(-c3c(C)cc(C(F)(F)F)cc3O)nn2)CCO1 [Example 192, 2-[6-[(2S)-2-[dideuterio(hydroxy)methyl]morpholin-4-yl]pyridazin-3-yl]-3-methyl-5-(trifluoromethyl)phenol]
6.27	5.01	Cc1cc(Cl)cc(O)c1-c1ccc(N2CCOc3cc(O)ccc32)nn1 [Example 193, 4-[6-(4-chloro-2-hydroxy-6-methyl-phenyl)pyridazin-3-yl]-2,3-dihydro-1,4-benzoxazin-7-ol]
8.40	< 5.00	Cc1cc(C(F)(F)F)cc(O)c1-c1cc(C(F)F)c(N2CCO[C@H](CO)C2)nn1 [Example 194, 2-[5-(difluoromethyl)-6-[(2S)-2-(hydroxymethyl)morpholin-4-yl]pyridazin-3-yl]-3-methyl-5-(trifluoromethyl)phenol]
6.34	< 5.00	Cc1cc(C)c(-c2ccc(N3CCNC4(CCOC4)C3)nn2)c(O)c1 (centres unmarked) [Example 196, 3,5-dimethyl-2-[6-(2-oxa-6,9-diazaspiro[4.5]decan-9-yl)pyridazin-3-yl]phenol]
7.80	< 5.00	Cc1cc(C)c(-c2ccc(N3C[C@@H](CO)O[C@H](CO)C3)nn2)c(O)c1 [Example 198, 2-[6-[(2S,6S)-2,6-bis(hydroxymethyl)morpholin-4-yl]pyridazin-3-yl]-3,5-dimethyl-phenol]
8.40	< 5.00	Cc1cc(C(F)(F)F)cc(O)c1-c1ccc(N2C[C@@H](CO)O[C@H](CO)C2)nn1 [Example 199, 2-[6-[(2S,6S)-2,6-bis(hydroxymethyl)morpholin-4-yl]pyridazin-3-yl]-3-methyl-5-(trifluoromethyl)phenol]
7.64	< 5.00	Cc1cc(C(F)(F)F)cc(O)c1-c1ccc(N2C[C@H](CO)O[C@@H](CO)C2)nn1 [Example 200, 2-[6-[(2R,6R)-2,6-bis(hydroxymethyl)morpholin-4-yl]pyridazin-3-yl]-3-methyl-5-(trifluoromethyl)phenol]
7.12	< 5.00	Cc1cc(C)c(-c2ccc(N3C[C@H](CO)O[C@@H](CO)C3)nn2)c(O)c1 [Example 201, 2-[6-[(2R,6R)-2,6-bis(hydroxymethyl)morpholin-4-yl]pyridazin-3-yl]-3,5-dimethyl-phenol]
6.48	5.00	Oc1cc(Cl)cc(Cl)c1-c1ccc(N2CCSCC2)nn1 [Example 203, 3,5-dichloro-2-(6-thiomorpholinopyridazin-3-yl)phenol]
7.27	< 5.00	Cc1cc(C2CC2)cc(O)c1-c1ccc(N2CCO[C@H](CO)C2)nn1 [Example 204, 5-cyclopropyl-2-[6-[(2S)-2-(hydroxymethyl)morpholin-4-yl]pyridazin-3-yl]-3-methyl-phenol]
6.49	< 5.00	Cc1cc(C)c(-c2ccc(N3C[C@H]4COC[C@H]4C3)nn2)c(O)c1 [Example 206, 2-[6-[(3aS,6aR)-1,3,3a,4,6,6a-hexahydrofuro[3,4-c]pyrrol-5-yl]pyridazin-3-yl]-3,5-dimethyl-phenol]
7.47	< 5.00	CC(=O)NC[C@@H]1CCCN(c2ccc(-c3c(C)cc(Cl)cc3O)nn2)C1 [Example 211, N-[[(3S)-1-[6-(4-chloro-2-hydroxy-6-methyl-phenyl)pyridazin-3-yl]-3-piperidyl]methyl]acetamide]
7.41	< 5.00	CC(=O)NC[C@H]1CCCN(c2ccc(-c3c(C)cc(Cl)cc3O)nn2)C1 [Example 212, N-[[(3R)-1-[6-(4-chloro-2-hydroxy-6-methyl-phenyl)pyridazin-3-yl]-3-piperidyl]methyl]acetamide]
6.89	< 5.00	CC(=O)NC[C@@H]1CN(c2ccc(-c3c(C)cc(C(F)(F)F)cc3O)nn2)CCO1 [Example 216, N-[[(2R)-4-[6-[2-hydroxy-6-methyl-4-(trifluoromethyl)phenyl]pyridazin-3-yl]morpholin-2-yl]methyl]acetamide]
6.90	< 5.00	Cc1cc(C)c(-c2ccc(N3CCCc4ccc(O)cc43)nn2)c(O)c1 [Example 217, 1-[6-(2-hydroxy-4,6-dimethyl-phenyl)pyridazin-3-yl]-3,4-dihydro-2H-quinolin-7-ol]

pIC50 [1]	pIC50 [2]	SMILES
6.99	< 5.00	Cc1cc(C)c(-c2ccc(N3CCO[C@H](CF)C3)nn2)c(O)c1 [Example 219, 2-[6-[(2S)-2-(fluoromethyl)morpholin-4-yl]pyridazin-3-yl]-3,5-dimethyl-phenol]
6.97	< 5.00	Cc1cc(C)c(-c2ccc(N3CCO[C@@H](CF)C3)nn2)c(O)c1 [Example 220, 2-[6-[(2R)-2-(fluoromethyl)morpholin-4-yl]pyridazin-3-yl]-3,5-dimethyl-phenol]
6.25	5.04	Cc1cc(C)c(-c2ccc(N3CCCc4cc(O)ccc43)nn2)c(O)c1 [Example 230, 1-[6-(2-hydroxy-4,6-dimethyl-phenyl)pyridazin-3-yl]-3,4-dihydro-2H-quinolin-6-ol]
6.66	< 5.00	Cc1cc(C)c(-c2ccc(N3CCCc4cccc(O)c43)nn2)c(O)c1 [Example 231, 1-[6-(2-hydroxy-4,6-dimethyl-phenyl)pyridazin-3-yl]-3,4-dihydro-2H-quinolin-8-ol]
6.30	5.12	Cc1cc(C)c(-c2ccc(N3CCCc4c(O)cccc43)nn2)c(O)c1 [Example 232, 1-[6-(2-hydroxy-4,6-dimethyl-phenyl)pyridazin-3-yl]-3,4-dihydro-2H-quinolin-5-ol]
7.15	5.15	Cc1cc(C)c(-c2ccc(N3CC(CO)CCC3=O)nn2)c(O)c1 (centres unmarked) [Example 235, 1-[6-(2-hydroxy-4,6-dimethyl-phenyl)pyridazin-3-yl]-5-(hydroxymethyl) piperidin-2-one]
6.26	5.02	Cc1cc(C)c(-c2ccc(N3CCc4cc(O)ccc43)nn2)c(O)c1 [Example 236, 1-[6-(2-hydroxy-4,6-dimethyl-phenyl)pyridazin-3-yl]indolin-5-ol]
6.70	< 5.00	O=C1NCCCN1c1ccc(-c2c(O)cc(Cl)cc2Cl)nn1 [Example 239, 1-[6-(2,4-dichloro-6-hydroxy-phenyl)pyridazin-3-yl]hexahydropyrimidin-2-one]
6.38	< 5.00	Cc1cc(C)c(-c2ccc(N3CCc4c(O)cccc43)nn2)c(O)c1 [Example 240, 1-[6-(2-hydroxy-4,6-dimethyl-phenyl)pyridazin-3-yl]indolin-4-ol]
6.60	< 5.00	Cc1cc(C)c(-c2ccc(N3CCc4c(CO)cccc43)nn2)c(O)c1 [Example 241, 2-[6-[4-(hydroxymethyl)indolin-1-yl]pyridazin-3-yl]-3,5-dimethyl-phenol]
7.19	< 5.00	CCc1cc(C)c(-c2ccc(N3CCO[C@H](CO)C3)nn2)c(O)c1 [Example 245, 5-ethyl-2-[6-[(2S)-2-(hydroxymethyl)morpholin-4-yl]pyridazin-3-yl]-3-methylphenol]
7.92	< 5.00	CCc1cc(C)cc(O)c1-c1ccc(N2CCO[C@H](CO)C2)nn1 [Example 246, 3-ethyl-2-[6-[(2S)-2-(hydroxymethyl)morpholin-4-yl]pyridazin-3-yl]-5-methylphenol]
6.77	< 5.00	OC[C@@H]1CN(c2cc(C(F)F)c(-c3ccc(C(F)(F)F)cc3O)nn2)CCO1 [Example 247, 2-[4-(difluoromethyl)-6-[(2S)-2-(hydroxymethyl)morpholin-4-yl]pyridazin-3-yl]-5-(trifluoromethyl)phenol]
7.09	< 5.00	Cc1cc(C(F)(F)F)cc(O)c1-c1nnc(N2CCO[C@H](CO)C2)cc1C(F)F [Example 248, 2-[4-(difluoromethyl)-6-[(2S)-2-(hydroxymethyl)morpholin-4-yl]pyridazin-3-yl]-3-methyl-5-(trifluoromethyl)phenol]
6.82	< 5.00	Cc1cc(Cl)cc(O)c1-c1nnc(N2CCO[C@H](CO)C2)cc1C(F)F [Example 249, 5-chloro-2-[4-(difluoromethyl)-6-[(2S)-2-(hydroxymethyl)morpholin-4-yl]pyridazin-3-yl]-3-methyl-phenol]
6.60	< 5.00	Cc1cc(C(F)(F)F)cc(O)c1-c1ccc(N2C[C@@H](N)CC2=O)nn1 [Example 250, (4S)-4-amino-1-[6-[2-hydroxy-6-methyl-4-(trifluoromethyl)phenyl]pyridazin-3-yl]pyrrolidin-2-one]
6.34	5.00	Cc1cc(C)c(-c2ccc(N3CCc4ccc(O)cc43)nn2)c(O)c1 [Example 254, 1-[6-(2-hydroxy-4,6-dimethyl-phenyl)pyridazin-3-yl]indolin-6-ol]
